Results taken from PubChem BioAssay (NCI).
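Assay format: 96-well plates, 48-hour exposure. TGI: total growth inhibition.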

What was measured:
Experiment in all cases: NCI-60 cell line screen, 48 h
[1] = test system: KM12 colon
[2] = test system: SNB-19 CNS
[3] = test system: SF-295 CNS
[4] = test system: CAKI-1 renal
[5] = test system: SF-268 CNS
[6] = test system: HCC-2998 colon
[7] = test system: UO-31 renal
[8] = test system: HL-60(TB) leukemia
[9] = test system: SR leukemia
[10] = test system: MOLT-4 leukemia
[11] = test system: LOX IMVI melanoma
[12] = test system: M14 melanoma
[13] = test system: NCI-H522 lung
[14] = test system: OVCAR-4 ovarian
[15] = test system: CCRF-CEM leukemia
[16] = test system: OVCAR-8 ovarian
[17] = test system: DMS 114 small cell lung
[18] = test system: RPMI-8226 leukemia
[19] = test system: DLD-1 colon
[20] = test system: UACC-62 melanoma
[21] = test system: 786-0 renal
[22] = test system: SK-MEL-5 melanoma
[23] = test system: M19-MEL melanoma
[24] = test system: A549 NSCLC
[25] = test system: SK-MEL-2 melanoma
[26] = test system: HT29 colon
[27] = test system: HOP-92 NSCLC
[28] = test system: HOP-18 NSCLC
[29] = test system: SN12C renal
[30] = test system: HOP-62 NSCLC
[31] = test system: LXFL 529 NSCLC
[32] = test system: XF 498 CNS
[33] = test system: DMS 273 small cell lung
[34] = test system: SK-OV-3 ovarian
[35] = test system: EKVX NSCLC
[36] = test system: IGROV1 ovarian
[37] = test system: RXF-631 renal
[38] = test system: SNB-75 CNS
[39] = test system: OVCAR-3 ovarian
[40] = test system: A498 renal
[41] = test system: U251 CNS
[42] = test system: TK-10 renal
[43] = test system: SF-539 CNS
[44] = test system: OVCAR-5 ovarian
[45] = test system: NCI-H460 lung
[46] = test system: SK-MEL-28 melanoma
[47] = test system: KM20L2 colon
[48] = test system: HCT-15 colon
[49] = test system: NCI-H226 lung
[50] = test system: K-562 leukemia
[51] = test system: ACHN renal
[52] = test system: NCI-H23 lung
[53] = test system: HCT-116 colon
[54] = test system: MALME-3M melanoma
[55] = test system: COLO 205 colon
[56] = test system: UACC-257 melanoma
[57] = test system: RXF 393 renal
[58] = test system: SNB-78 CNS
[59] = test system: SW-620 colon

In the case of `COC(=O)C(=O)C(C(=O)OC)C(=O)C(=O)Nc1cc(Cl)c(Cl)cc1Cl` (configuration not stated), the TGI [1] is reported as greater than 100 µM, the TGI [2] is reported as greater than 100 µM and the TGI [3] is reported as greater than 100 µM. The TGI [4] was greater than 100 µM, the TGI [5] was greater than 100 µM and the TGI [6] was greater than 100 µM. It also gave a TGI [7] greater than 100 µM, a TGI [8] greater than 100 µM and a TGI [9] of 56.7 µM. The TGI [10] was greater than 100 µM, the TGI [11] was greater than 100 µM and the TGI [12] was greater than 100 µM. The TGI [13] was greater than 100 µM, the TGI [14] was greater than 100 µM and the TGI [15] was greater than 100 µM. For the same molecule, the TGI [16] was greater than 100 µM, the TGI [17] was 30.8 µM and the TGI [18] was 60.3 µM. It also gave a TGI [19] greater than 100 µM, a TGI [20] greater than 100 µM and a TGI [21] greater than 100 µM. The TGI [22] was greater than 100 µM, the TGI [23] was greater than 100 µM and the TGI [24] was greater than 100 µM. For the same molecule, the TGI [25] was greater than 100 µM, the TGI [26] was greater than 100 µM and the TGI [27] was greater than 100 µM. The TGI [28] was greater than 100 µM, the TGI [29] was greater than 100 µM and the TGI [30] was greater than 100 µM. For the same molecule, the TGI [31] was greater than 100 µM, the TGI [32] was greater than 100 µM and the TGI [33] was greater than 100 µM. The TGI [34] was greater than 100 µM, the TGI [35] was greater than 100 µM and the TGI [36] was greater than 100 µM. It also gave a TGI [37] greater than 100 µM, a TGI [38] greater than 100 µM and a TGI [39] greater than 100 µM. It also gave a TGI [40] greater than 100 µM, a TGI [41] greater than 100 µM and a TGI [42] greater than 100 µM. The TGI [43] was greater than 100 µM, the TGI [44] was greater than 100 µM and the TGI [45] was greater than 100 µM. It also gave a TGI [46] greater than 100 µM, a TGI [47] greater than 100 µM and a TGI [48] greater than 100 µM. For the same molecule, the TGI [49] was greater than 100 µM, the TGI [50] was greater than 100 µM and the TGI [51] was greater than 100 µM. It also gave a TGI [52] greater than 100 µM, a TGI [53] of 75.8 µM and a TGI [54] greater than 100 µM. For the same molecule, the TGI [55] was greater than 100 µM, the TGI [56] was greater than 100 µM and the TGI [57] was greater than 100 µM.

Molecule `COC(=O)[C@@]12C=CC(=O)[C@H]3C[C@@H](C(C(C)C)C1)[C@]32OC` (some centres not stated) has a TGI [1] greater than 100 µM, a TGI [2] greater than 100 µM and a TGI [3] greater than 100 µM. The TGI [4] was greater than 100 µM, the TGI [5] was greater than 100 µM and the TGI [6] was greater than 100 µM. It also gave a TGI [8] greater than 100 µM, a TGI [10] greater than 100 µM and a TGI [12] greater than 100 µM. The TGI [14] was greater than 100 µM, the TGI [15] was greater than 100 µM and the TGI [16] was greater than 100 µM. It also gave a TGI [17] greater than 100 µM, a TGI [18] greater than 100 µM and a TGI [19] greater than 100 µM. The TGI [20] was greater than 100 µM, the TGI [21] was greater than 100 µM and the TGI [22] was greater than 100 µM. The TGI [23] was greater than 100 µM, the TGI [24] was greater than 100 µM and the TGI [25] was greater than 100 µM. The TGI [26] was greater than 100 µM, the TGI [27] was greater than 100 µM and the TGI [28] was greater than 100 µM. The TGI [58] was greater than 100 µM, the TGI [29] was greater than 100 µM and the TGI [59] was greater than 100 µM. It also gave a TGI [30] greater than 100 µM, a TGI [31] greater than 100 µM and a TGI [32] greater than 100 µM. For the same molecule, the TGI [33] was greater than 100 µM, the TGI [34] was greater than 100 µM and the TGI [35] was greater than 100 µM. For the same molecule, the TGI [36] was greater than 100 µM, the TGI [37] was greater than 100 µM and the TGI [38] was greater than 100 µM. For the same molecule, the TGI [39] was greater than 100 µM, the TGI [40] was greater than 100 µM and the TGI [41] was greater than 100 µM. For the same molecule, the TGI [42] was greater than 100 µM, the TGI [43] was greater than 100 µM and the TGI [44] was greater than 100 µM. The TGI [45] was greater than 100 µM, the TGI [46] was greater than 100 µM and the TGI [47] was greater than 100 µM. The TGI [48] was greater than 100 µM, the TGI [50] was greater than 100 µM and the TGI [51] was greater than 100 µM. It also gave a TGI [52] greater than 100 µM, a TGI [53] greater than 100 µM and a TGI [54] greater than 100 µM. For the same molecule, the TGI [55] was greater than 100 µM, the TGI [56] was greater than 100 µM and the TGI [57] was greater than 100 µM.

With `O=C(N/N=C(\c1nc2ccc(Cl)cc2[nH]c1=O)C(O)c1ccccc1Cl)c1ccncc1` (configuration not stated) the TGI [1] was greater than 100 µM, the TGI [2] was greater than 100 µM and the TGI [3] was greater than 100 µM. It also gave a TGI [4] greater than 100 µM, a TGI [5] greater than 100 µM and a TGI [6] greater than 100 µM. For the same molecule, the TGI [7] was greater than 100 µM, the TGI [8] was greater than 100 µM and the TGI [10] was greater than 100 µM. The TGI [11] was greater than 100 µM, the TGI [12] was greater than 100 µM and the TGI [13] was greater than 100 µM. It also gave a TGI [14] greater than 100 µM, a TGI [15] greater than 100 µM and a TGI [17] greater than 100 µM. The TGI [19] was greater than 100 µM, the TGI [20] was greater than 100 µM and the TGI [21] was greater than 100 µM. The TGI [22] was greater than 100 µM, the TGI [23] was greater than 100 µM and the TGI [24] was greater than 100 µM. The TGI [25] was greater than 100 µM, the TGI [26] was greater than 100 µM and the TGI [27] was greater than 100 µM. It also gave a TGI [28] greater than 100 µM, a TGI [59] greater than 100 µM and a TGI [31] greater than 100 µM. It also gave a TGI [33] greater than 100 µM, a TGI [34] greater than 100 µM and a TGI [35] greater than 100 µM. The TGI [36] was greater than 100 µM, the TGI [37] was greater than 100 µM and the TGI [38] was greater than 100 µM. The TGI [39] was greater than 100 µM, the TGI [40] was greater than 100 µM and the TGI [42] was greater than 100 µM. The TGI [43] was greater than 100 µM, the TGI [44] was greater than 100 µM and the TGI [45] was greater than 100 µM. For the same molecule, the TGI [46] was greater than 100 µM, the TGI [47] was greater than 100 µM and the TGI [48] was greater than 100 µM. The TGI [49] was greater than 100 µM, the TGI [50] was greater than 100 µM and the TGI [51] was greater than 100 µM. For the same molecule, the TGI [52] was greater than 100 µM, the TGI [53] was greater than 100 µM and the TGI [54] was greater than 100 µM. For the same molecule, the TGI [55] was greater than 100 µM, the TGI [56] was greater than 100 µM and the TGI [57] was greater than 100 µM.
